The text below walks through data of US20230039917A1, “EXO-AZA SPIRO INHIBITORS OF MENIN-MLL INTERACTION” (Janssen Pharmaceutica NV, priority 2017, published 2023).

Read-outs that look alike come from different tables or passages of the source.

Assay [1] has as its target T1, menin.FITC-MBM1 complex (terbium chelate-labeled menin) (Homo sapiens, UniProt O00255, F410E/T541A).
T1 construct: Menin (a.a. 1-610-6×his tag) was labeled with terbium cryptate as follows
T1 sequence (O00255 with tags, fused parts or gaps F410E/T541A): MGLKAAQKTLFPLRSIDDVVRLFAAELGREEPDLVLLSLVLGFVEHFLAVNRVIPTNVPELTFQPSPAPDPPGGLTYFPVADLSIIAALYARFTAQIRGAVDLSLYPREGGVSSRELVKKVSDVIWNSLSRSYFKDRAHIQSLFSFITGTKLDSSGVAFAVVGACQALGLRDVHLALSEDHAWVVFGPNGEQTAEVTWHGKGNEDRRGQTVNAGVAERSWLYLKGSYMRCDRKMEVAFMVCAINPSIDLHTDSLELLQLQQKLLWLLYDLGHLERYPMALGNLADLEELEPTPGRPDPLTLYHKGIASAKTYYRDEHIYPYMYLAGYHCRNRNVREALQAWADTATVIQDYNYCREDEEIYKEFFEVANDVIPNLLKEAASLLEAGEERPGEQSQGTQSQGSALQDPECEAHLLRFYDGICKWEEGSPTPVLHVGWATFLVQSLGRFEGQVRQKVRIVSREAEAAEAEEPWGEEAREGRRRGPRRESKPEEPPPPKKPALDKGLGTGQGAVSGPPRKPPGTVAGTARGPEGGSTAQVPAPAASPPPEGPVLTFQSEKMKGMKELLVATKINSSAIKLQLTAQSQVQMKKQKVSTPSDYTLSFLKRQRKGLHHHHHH
The experiment in a line: Menin/MLL homogenous time-resolved fluorescence (HTRF) assay. It is filed as binding. On the procedure: 2) Menin/MLL Homogenous Time-Resolved Fluorescence (HTRF) Assay
To an untreated, white 384-well microtiter plate was added 40 nL 200× test compound in DMSO and 4 μL 2× terbium chelate-labeled menin (vide infra for preparation) in assay buffer (40 mM Tris.HCl, pH 7.5, 50 mM NaCl, 1 mM DTT and 0.05% Plutonic F-127). After incubation of test compound and terbium chelate-labeled menin for 5 min at ambient temperature, 4 μL2× FITC-MBM1 peptide (FITC-β-alanine-[…]-NH2) in assay buffer was added, the microtiter plate centrifuged at 1000 rpm for 1 min and the assay mixtures incubated for 15 min at ambient temperature. The relative amount of menin.FITC-MBM1 complex present in an assay mixture is determined by measuring the homogenous time-resolved fluorescence (HTRF) of the terbium/FITC donor/acceptor fluorphore pair using a BMG Pherastar plate reader (ex. 337 nm/terbium em. 490 nm/FITC em. 520 nm) at ambient temperature. The degree of fluorescence resonance energy transfer (the HTRF value) is expressed as the ratio of the fluorescence emission intensities of the FITC and terbium fluorophores (F^em 520 nm/F^em 490 nm). The final concentrations of reagents in the binding assay are 100 pM terbium chelate-labeled menin (location 1) or 600 pM terbium chelate-labeled menin (location 2), 75 nM FITC-MBM1 peptide and 0.5% DMSO in assay buffer. Dose-response titrations of test compounds are conducted using an 11 point, three-fold serial dilution scheme, starting typically at 25 μM (location 1) or starting typically at 10 μM (location 2).
Compound potencies were determined by first calculating % inhibition at each compound concentration according to equation 1:
% inhibition=((HC−LC)−(HTRF^compound−LC))/(HC−LC))*100 (Eqn 1)
Where LC and HC are the HTRF values of the assay in the presence or absence of a saturating concentration of a compound that competes with FITC-MBM1 for binding to menin, and HTRF^compound is the measured HTRF value in the presence of the test compound. HC and LC HTRF values represent an average of at least 16 replicates per plate.
% inhibition=Bottom+(Top−Bottom)/(1+10^((log IC50−log [cmpd])*h)) (Eqn 2)
Where Bottom and Top are the lower and upper asymptotes of the dose-response curve, respectively, IC50 is the concentration of compound that yields 50% inhibition of signal and h is the Hill coefficient.
Preparation of Terbium cryptate labeling of Menin: Menin (a.a. 1-610-6×his tag) was labeled with terbium cryptate as follows. 2 mg of Menin was buffer exchanged into 1× phosphate buffered saline. 16 uM Menin was incubated with 4-fold molar excess NHS-terbium cryptate (Cisbio Bioassays, Bedford, Mass.) for 2 hours at room temperature. The labeled protein was purified away from free label by running the reaction over a Superdex 200 Increase 10/300 GL column at 0.75 ml/min. Peak fractions were collected, aliquoted and frozen at −80° C.
A general note: In TR-FRET formats the signal depends on donor and acceptor labels being close together.

The next assay concerns MOLM14 cells. Kind of assay: Proliferation assay B (spheroid assay) MOLM14. The following applies: confluence at day 8, read-out: (3b) Spheroid assay MOLM14 (IC50(μM)) Assay B. Type of assay: cell-based, human. On the procedure: 3b) Proliferation Assay B
(§1) The anti-proliferative effect of menin/MLL protein/protein interaction inhibitor test compounds was assessed in human leukemia cell lines. The cell lines MV-4-11 and MOLM14 harbor MLL translocations and express the MLL fusion proteins MLL-AF4 and MLL-AF9, respectively, as well as the wildtype protein from the second allele. […] K562 was used as a control cell line containing two MLL wildtype alleles in order to exclude compounds that display general cytotoxic effects.
(§2) MV-4-11 and MOLM14 were cultured in RPMI-1640 (Sigma Aldrich) supplemented with 10% fetal bovine serum (HyClone), 2 mM L-glutamine (Sigma Aldrich) and 50 μg/ml gentamycin (Gibco). K562 were propagated in RPMI-1640 (Sigma Aldrich) supplemented with 20% fetal bovine serum (HyClone), 2 mM L-glutamine (Sigma Aldrich) and 50 μg/ml gentamycin (Gibco).
(§3) In order to assess the anti-proliferative effects, 1,500 MV-4-11, 300 MOLM14 cells or 750 K562 cells were seeded in 200 μl media per well in 96-well round bottom, ultra-low attachment plates (Costar, catalogue number 7007). Cell seeding numbers were chosen based on growth curves to ensure linear growth throughout the experiment. Test compounds were added at different concentrations and the DMSO content was normalized to 0.3%. Cells were incubated for 8 d at 37° C. and 5% CO2. Spheroid like growth was measured in real-time by live-cell imaging (IncuCyteZOOM, Essenbio, 4× objective) acquiring images at day 8. Confluence (%) as a measure of spheroid size was determined using an integrated analysis tool.
In order to determine the effect of the test compounds over time, the confluence in each well as a measure of spheroid size, was calculated. Confluence […] at the beginning of the experiment (t=0) was used as baseline for the calculation.
Absolute IC50 values were calculated as percent change in confluence as follows:
LC=Low Control: cells treated with 1 μM of the cytotoxic agent staurosporin
HC=High Control: Mean confluence (%) (DMSO treated cells)
Effect=100−(100*(Sample−LC)/(HC−LC))
To determine the IC50 a curve is fitted to the plot of % Effect vs Log 10 compound concentration using a sigmoidal fit with a variable slope and fixing the maximum to 100% and the minimum to 0%.

Another assay relates to MV-4-11 cells. The experiment in a line: Proliferation assay A (spheroid assay) MV-4-11. It is filed as cell-based. The settings on record: Homo sapiens, MV4-11, 192 h, 8 d, AUC of confluence against time, absolute IC50, read-out: (3a) Spheroid assay MV-4-11 (IC50(μM)) Assay A. As for the experimental part: 3a) Proliferation Assay A
as §1, §2
as §3, with “MOLM14” for “MOLM14 cells”, “monitored” for “measured”, “one image every four hours for 8 d.” for “images at day 8.”
In order to determine the cumulative effect of the test compounds over time, the area under the curve (AUC) in a plot of confluence against time was calculated. Confluence at the beginning of the experiment (t=0) was used as baseline for the AUC calculation.
Absolute IC50 values were calculated according to the following procedure:
% Control=(AUC sample/AUC control)*100
AUC control=mean AUC of control values (cells without compound/DMSO as vehicle control)
A non-linear curve fit was applied using the least squares (ordinary) fit method to the plot of % control versus compound concentration. Based on this, the absolute IC50 value (half maximal inhibitory concentration of the test compound causing an anti-proliferative effect of 50% relative to the vehicle control) was calculated.

[2] abbreviates: location 2, read-out: (2) location 2 Menin HTRF assay (IC50 (nM)).

In the case of `N#Cc1ccc(NC2CC3(CCN(c4ncnc5sc(CC(F)(F)F)cc45)C3)C2)nc1` (single isomer, unassigned) [Compound 174], the IC50 in assay [1] (setting [2]) was 114 nM.
As to `CN1CCN(Cc2cc(NC3CC4(CCN(c5ncnc6sc(CC(F)(F)F)cc56)C4)C3)ccc2C#N)CC1` (mixture of isomers) [Compound 225], the IC50 with MOLM14 cells (Homo sapiens, MOLM-14, 192 h) is 1.95 µM.
`CNS(=O)(=O)c1ccc(NC2CC3(CCN(c4ncnc5sc(CC(F)(F)F)cc45)C3)C2)cc1` (stereo not shown) [Compound 317]: the half-maximal inhibitory concentration (IC50) in assay [1] (setting [2]) was found to be 143 nM.
As to `COC1CCN(C(=O)c2ccc(NC3CC4(CCN(c5ncnc6sc(CC(F)(F)F)cc56)C4)C3)cc2)CC1` (single isomer, unassigned) [Compound 184], the IC50 in the assay with MOLM14 cells is > 3.75 µM.
Take `CNC(=O)c1ccc(NC2CC3(CCN(c4ncnc5sc(CC(F)(F)F)cc45)C3)C2)c(Cl)c1` (single isomer, unassigned) [Compound 69]: the IC50 in assay [1] (setting [2]) turned out to be 1.2 nM.
On to `CC(C)CNC1CC2(CCN(c3ncnc4sc(CC(F)(F)F)cc34)C2)C1` (stereo not shown) [Compound 50], for which the half-maximal inhibitory concentration (IC50) in assay [1] (location 1, read-out: (2) location 1 Menin HTRF assay (IC50 (nM))) came to 95.8 nM; in the assay on MV-4-11 cells, 0.91 µM.
With `CNC(=O)c1ccc(N[C@@H]2CC[C@]3(CCN(c4ncnc5sc(CC(F)(F)F)cc45)C3)C2)cc1` (racemic) [Compound 136], the half-inhibitory concentration (IC50) in assay [1] (setting [2]) was 40.9 nM.
The same measure, in the same setting: then `O=c1[nH]c2ccc(NC3CC4(CCN(c5ncnc6sc(CC(F)(F)F)cc56)C4)C3)cc2[nH]1` (stereo not shown) [Compound 321], with 91.5 nM; and `FC(F)(F)Cc1cc2c(N3CC4(CCC(Nc5ccc(-c6cn[nH]c6)cc5)C4)C3)ncnc2s1` (stereo not shown) [Compound 302], with 50.9 nM.
As to `CNC(=O)c1c(F)cc(NC2CC3(CCN(c4ncnc5sc(CC(F)(F)F)cc45)C3)C2)cc1F` (single isomer, unassigned) [Compound 244], the IC50 in the assay on MOLM14 cells was > 3.75 µM.
Take `FC(F)(F)Cc1cc2c(N3CC[C@@]4(CC[C@H](NCc5ccccc5)C4)C3)ncnc2s1` (single isomer, unassigned) [Compound 6]: in the assay with MV-4-11 cells, the IC50 was determined as 1.12 µM.
For the compound `O=S(=O)(NC1CC2(CCN(c3ncnc4sc(CC(F)(F)F)cc34)C2)C1)c1ccccc1` (stereo not shown) [Compound 23], the half-maximal inhibitory concentration (IC50) in assay [1] (setting [2]) amounted to 1310 nM.
For `CN(C)CCNC(=O)c1ccc(NC2CC3(CCN(c4ncnc5sc(CC(F)(F)F)cc45)C3)C2)cc1` (single isomer, unassigned) [Compound 74], the concentration for half-maximal inhibition (IC50) with MOLM14 cells (Homo sapiens, MOLM-14, 192 h) is > 3.75 µM.
Consider `CNC(=O)c1ccc(NC2CC3(CCN(c4ncnc5sc(CC(F)(F)F)cc45)C3)C2)cc1C1CCN(C)CC1` (single isomer, unassigned) [Compound 231], for which the IC50 with MOLM14 cells is > 3.75 µM.
For `CNC(=O)c1ccc(NC2CC3(CCN(c4ncnc5sc(CC(F)(F)F)cc45)C3)C2)c(Cl)c1` (single isomer, unassigned) [Compound 68], the half-inhibitory concentration (IC50) in the assay on MOLM14 cells (Homo sapiens, MOLM-14, 192 h) turned out to be 2.24 µM.
On to `O=C(c1cnc(NC2CC3(CCN(c4ncnc5sc(CC(F)(F)F)cc45)C3)C2)nc1)N1CCOCC1` (single isomer, unassigned) [Compound 259], for which the half-inhibitory concentration (IC50) in the assay with MOLM14 cells was > 3.75 µM.
For `O=c1[nH]c2ccc(CN[C@@H]3CCC4(C3)CN(c3ncnc5sc(CC(F)(F)F)cc35)C4)cc2o1` (single isomer, unassigned) [Compound 55], in assay [1] (setting [2]), the concentration for half-maximal inhibition (IC50) turned out to be 2 nM.
With `CS(=O)(=O)N1CCN(C(=O)c2ccc(NC3CC4(CCN(c5ncnc6sc(CC(F)(F)F)cc56)C4)C3)cc2)CC1` (single isomer, unassigned) [Compound 179], in the assay on MOLM14 cells, the concentration for half-maximal inhibition (IC50) is > 3.75 µM.
As to `CNC(=O)c1ccc(NC2CC3(CCN(c4ncnc5sc(CC(F)(F)F)cc45)C3)C2)cc1NCCN(C)C` (mixture of isomers) [Compound 239], in the assay on MOLM14 cells (Homo sapiens, MOLM-14, 192 h), the half-maximal inhibitory concentration (IC50) was > 3.75 µM.
`Nc1nc(N2CCC3(CC(Nc4ccc5oc(=O)[nH]c5c4)C3)C2)c2cc(CC(F)(F)F)sc2n1` (stereo not shown) [Compound 380]: the half-maximal inhibitory concentration (IC50) was 8.7 nM in assay [1] (setting [2]) and > 3.75 µM in the assay on MOLM14 cells (Homo sapiens, MOLM-14, 192 h).
Turning to `CN1CCC(c2cc(NC3CC4(CCN(c5ncnc6sc(CC(F)(F)F)cc56)C4)C3)ccc2C(=O)N2CCOCC2)CC1` (single isomer, unassigned) [Compound 233], in the assay on MOLM14 cells, the IC50 was > 3.75 µM.
In the case of `FC(F)(F)Cc1cc2c(N3CC[C@]4(CC[C@H](NCc5ccccc5)C4)C3)ncnc2s1` (single isomer, unassigned) [Compound 4], the 50% inhibitory concentration (IC50) in the assay with MV-4-11 cells came to 0.5 µM.
As to `CN1CCN(c2cc(NC3CC4(CCN(c5ncnc6sc(CC(F)(F)F)cc56)C4)C3)ccc2C#N)CC1` (mixture of isomers) [Compound 240], the IC50 with MOLM14 cells (Homo sapiens, MOLM-14, 192 h) worked out at 1.14 µM.

In general, IC50 refers to the concentration that inhibits the measured activity by half.
